Our source for the IC50 values is US9790169B2, “IDO inhibitors” (BRISTOL-MYERS SQUIBB COMPANY, priority 2015, dated 2017).

Molecules are shown by their SMILES.

One experiment deals with T1, human IDO1 (Homo sapiens, UniProt P14902). Kind of experiment: Assessment of human IDO-1 inhibitory activity in Hela cells (Interferon-gamma stimulated HeLa cells, Ehrlich reagent, absorbance 490 nm). It is filed as cell-based. Details: endogenous in cells; host or cells: HeLa cells stimulated with interferon-gamma. The settings on record: Hela Human IDO-1 cellular assay. On the procedure: Exemplary compounds were tested for inhibition of IDO activity.
T1 sequence (P14902 whole entry): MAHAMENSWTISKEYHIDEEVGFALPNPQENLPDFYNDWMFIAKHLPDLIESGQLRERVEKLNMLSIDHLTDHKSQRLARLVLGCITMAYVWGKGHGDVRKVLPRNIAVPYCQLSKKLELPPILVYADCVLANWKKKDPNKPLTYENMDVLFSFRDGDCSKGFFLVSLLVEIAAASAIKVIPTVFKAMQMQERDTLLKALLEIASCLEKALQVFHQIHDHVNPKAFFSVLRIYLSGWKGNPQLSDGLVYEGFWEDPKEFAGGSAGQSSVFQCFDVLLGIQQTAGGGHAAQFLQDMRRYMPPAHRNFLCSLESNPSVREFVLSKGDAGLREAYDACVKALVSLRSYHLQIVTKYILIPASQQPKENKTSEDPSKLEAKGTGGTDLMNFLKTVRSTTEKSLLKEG
Assessment of Human IDO-1 Inhibitory Activity in Hela Cells
HeLa cells were seeded at 20,000 cells per 30 μL per well with RPMI/phenol red free media containing 10% FBS in a 384-well tissue culture plate (black with clear bottoms). 50 nL of compound was added to cells and incubated at 37° C. for one hour. 20 μL of the recombinant human Interferon-gamma (R&D System, Cat. #285-IF, at final concentration of 10 ng/ml) or recombinant murine Interferon-gamma (PEPROTECH® Inc., Cat. #315-05, final concentration of 5 ng/ml) was added to activate IDO signaling. The cells were incubated for 18 hours in 37° C. incubator with 5% CO2.
Compound treatment was stopped by adding 5 μl trichloroacetic acid to a final concentration of 3%. Subsequently, the cell plate was further incubated at 50° C. for 30 minute. An equal volume supernatant (20 μL) and 2% (w/v) Ehrlich reagent (4-dimethylaminobenzaldehyde) in glacial acetic acid were mixed in a new clear bottom 384-well plate. This plate was incubated at room temperature for 30 minutes. Absorbance at 490 nm was measured on Envision plate reader.
Compound IC50 values were calculated using counts from unstimulated (no INF-gamma treatment) wells as 100% inhibition. INF-gamma treatment without compound treatment as 0% inhibition.
The term IC50 denotes the point on the concentration scale where inhibition reaches its midpoint. The molecule `CCOc1ncc(Nc2cc(C(C)(C)CC(=O)O)ccc2N(CCOC)C2CCOCC2)cn1` [Example 17, 3-(3-((2-ethoxypyrimidin-5-yl)amino)-4-((2-methoxyethyl)(tetrahydro-2H-pyran-4-yl)amino)phenyl)-3-methylbutanoic acid] had an IC50 of more than 0.05 µM.

In turn, `CCN(c1ccc(C(CC)(CC)CC(=O)O)cc1NC(=O)Nc1ccc(C#N)cc1)C1CCOCC1` [Example 31, 3-(3-(3-(4-cyanophenyl)ureido)-4-(ethyl(tetrahydro-2H-pyran-4-yl)amino)phenyl)-3-ethylpentanoic acid] displayed an IC50 of less than 0.05 µM.

Molecule `CCOc1ncc(Nc2cc(C(CC)CC(=O)O)ccc2N2CC(O)(c3ccc(F)cc3)C2)cn1` (single isomer, unassigned) [Example 1256, 3-(3-((2-ethoxypyrimidin-5-yl)amino)-4-(3-(4-fluorophenyl)-3-hydroxyazetidin-1-yl)phenyl)pentanoic acid] came in with an IC50 of more than 0.05 µM.

The target in a further experiment is T1, human IDO1. The experiment can be described thus: Assessment of human IDO-1 inhibitory activity in HEK cells (human IDO1/HEK293 cells, kynurenine read-out with Ehrlich reagent, absorbance 490 nm). It is filed as cell-based. Further details: expressed in transfected cells. The settings on record: HEK Human IDO-1 cellular assay. The procedure, abridged:
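Kynurenine output from stably IDO1-transfected HEK293 cells (10,000/well, phenol red-free RPMI, 10% FBS) after 20 h compound exposure at 37 °C. The reaction was stopped with 0.2% TCA and heated 30 min at 50 °C, then the supernatant was mixed with Ehrlich reagent and read at 490 nm. IC50 was set against DMSO and a 500 nM reference standard as 0 and 100% inhibition.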
For the molecule `CC[C@H](CC(=O)O)c1ccc(N(CC(C)(C)O)C2CCCCC2)c(Nc2ccc(OC(F)F)cc2)c1` (single isomer, unassigned) [Example 237], the IC50 is less than 0.005 µM.

In the case of `CCC(CC(=O)O)c1cc(F)c(N(CC(C)C)CC(C)C)c(NC(=O)Cc2ccc(C)cc2F)c1` (single isomer, unassigned) [Example 1094 E1], the IC50 is less than 0.005 µM.

As to `CC[C@H](CC(=O)O)c1ccc(N2CCOC[C@@H]2C(C)C)c(NC(=O)Nc2ccc(C)cc2)c1` (single isomer, unassigned) [Example 85], the IC50 was more than 0.05 µM.

`CCN(c1ccc(C(C)(C)CC(=O)O)cc1Nc1ccc(C#N)cc1)C1CCOCC1` [Example 160, 3-(3-((4-cyanophenyl)amino)-4-(ethyl(tetrahydro-2H-pyran-4-yl)amino)phenyl)-3-methylbutanoic acid]: the IC50 was less than 0.005 µM.

As to `CC[C@H](CC(=O)O)c1ccc(N(CC(C)(C)O)C2CCOCC2)c(Nc2ccc3c(c2)OC(F)(F)O3)c1` (single isomer, unassigned) [Example 204], the IC50 was less than 0.005 µM.

On to `CCC(CC(=O)O)c1ccc(N(CC)C2CCCOC2)c(Nc2cnc(OC)nc2)c1` (single isomer, unassigned) [Example 71, 3-(4-(ethyl(tetrahydro-2H-pyran-3-yl)amino)-3-((2-methoxypyrimidin-5-yl)amino)phenyl)pentanoic acid], for which the IC50 was less than 0.05 µM.

With `CC[C@@H](CC(=O)O)c1ccc(N(CC(C)(C)O)C2CCCCC2)c(Nc2ccc(F)cc2)c1` (single isomer, unassigned) [Example 225], the IC50 was less than 0.005 µM.

Take `CCN(c1ccc([C@@H](COC)CC(=O)O)cc1NC(=O)Nc1cnc(C)nc1)C1CCOCC1` (single isomer, unassigned) [Example 427]: the IC50 is more than 0.05 µM.

As for `CC(C)CN(c1ccc(C(CC(=O)O)C2CC2)cc1NC(=O)Nc1ccc(Cl)cc1F)C1CCOCC1` (single isomer, unassigned) [Example 1199 Enantiomer 1, 3-(3-(3-(4-Chloro-2-fluorophenyl)ureido)-4-(isobutyl(tetrahydro-2H-pyran-4-yl)amino)phenyl)-3-cyclopropylpropanoic acid], the IC50 is less than 0.005 µM.

Turning to `CC[C@H](CC(=O)O)c1ccc(N(CC)C2CCCCC2)c(Nc2ccc(C#N)cc2)c1` (single isomer, unassigned) [Example 289], the IC50 is less than 0.005 µM.

For `COCC(CC(=O)O)c1ccc(N(CC(C)C)C2CCOCC2)c(NC(=O)Nc2ccc(C)cc2)c1` (single isomer, unassigned) [Example 1209, 3-(4-(Isobutyl(tetrahydro-2H-pyran-4-yl)amino)-3-(3-(p-tolyl)ureido)phenyl)-4-methoxybutanoic acid], the IC50 was more than 0.05 µM.

As for `COCC(CC(=O)O)c1ccc(N(CC(C)C)C2CCCCC2)c(NC(=O)Nc2cc(C)on2)c1` (racemic) [Example 986, (+/−)-3-(4-(Cyclohexyl(isobutyl)amino)-3-(3-(5-methylisoxazol-3-yl)ureido)phenyl)-4-methoxybutanoic acid], the IC50 was less than 0.05 µM.

Turning to `Cc1ccc(CC(=O)Nc2cc(C(CC(=O)O)C(C)C)ccc2N(C)C(C)(C)C)cc1` (single isomer, unassigned) [1007-1], the half-inhibitory concentration (IC50) was more than 0.05 µM.

Turning to `CCC(CC(=O)O)c1ccc(N(CC(C)C)C2CCCCC2)c(Nc2ccc(Cl)cc2)c1` (single isomer, unassigned) [Example 308, 3-(3-((4-chlorophenyl)amino)-4-(cyclohexyl (isobutyl)amino)phenyl) pentanoic acid], the IC50 is less than 0.005 µM.

Turning to `CC[C@H](CC(=O)O)c1ccc(N2CCOC[C@@H]2C(C)C)c(NC(=O)Nc2ccc(Cl)cc2F)c1` (single isomer, unassigned) [Example 86], the IC50 was less than 0.05 µM.

`CCOc1ncc(Nc2cc(C(C)CC(=O)O)ccc2N(CC(C)(C)O)C2CCCCC2)cn1` (single isomer, unassigned) [Example 50, 3-(4-(cyclohexyl(2-hydroxy-2-methylpropyl)amino)-3-((2-ethoxypyrimidin-5-yl)amino)phenyl)butanoic acid]: the IC50 is more than 0.05 µM.

As to `CC[C@@H](CC(=O)O)c1ccc(N(CC(C)(C)O)C2CCOCC2)c(Nc2ccc(Cl)cc2)c1` (single isomer, unassigned) [Example 198], the IC50 is less than 0.005 µM.

Regarding `COCC(CC(=O)O)c1ccc(N(CC(C)C)CC(C)C)c(NC(=O)Nc2cncnc2)c1` (single isomer, unassigned) [997-1], the IC50 is more than 0.05 µM.

Consider `CCCN(CC1CC1)c1ccc(C(CC)CC(=O)O)cc1Nc1ccc2nc(C)sc2c1` (single isomer, unassigned) [Example 658, 3-(4-((cyclopropylmethyl) (propyl)amino)-3-((2-methylbenzo[d]thiazol-6-yl)amino)phenyl)pentanoic acid], for which the IC50 is less than 0.05 µM.

With `CC(C)CN(CC(C)C)c1ccc(C(C)(C)CC(=O)O)cc1Nc1ccc2c(c1)OC(F)(F)O2` [Example 147, 3-(3-((2,2-difluorobenzo[d][1,3]dioxol-5-yl)amino)-4-(diisobutylamino)phenyl)-3-methylbutanoic acid], the IC50 was less than 0.05 µM.

Regarding `CCC(CC(=O)O)c1cc(F)c(N(CC(C)C)CC(C)C)c(Nc2cnc(OC)nc2)c1` (single isomer, unassigned) [Example 104, 3-(4-(diisobutylamino)-3-fluoro-5-((2-methoxypyrimidin-5-yl)amino)phenyl) pentanoic acid], the IC50 is less than 0.005 µM.

Turning to `CCC(CC(=O)O)c1ccc(N(CC(C)C)CC(C)C)c(NC(=O)Cc2ccc(C#N)cc2)c1` (racemic) [Example 950, (+/−)-3-(3-(2-(4-Cyanophenyl)acetamido)-4-(diisobutylamino)phenyl)pentanoic acid], the IC50 was less than 0.005 µM.

Take `CCC(CC(=O)O)c1cc(F)c(N(CC(C)C)CC(C)C)c(Nc2ccc(OCC3CC3)cc2)c1` (single isomer, unassigned) [Example 106, 3-(3-((4-(cyclopropylmethoxy)phenyl)amino)-4-(diisobutylamino)-5-fluorophenyl)pentanoic acid]: the IC50 was less than 0.05 µM.

For `CCN(c1ccc([C@@H](COC)CC(=O)O)cc1Nc1cnc(OC)nc1)C1CCOCC1` (single isomer, unassigned) [Example 350], the IC50 is less than 0.05 µM.

`CCN(c1ccc([C@H](COC)CC(=O)O)cc1NC(=O)Nc1ccc(OC)nc1)C1CCOCC1` (single isomer, unassigned) [Example 437]: the IC50 was more than 0.05 µM.

Turning to `COc1ncc(Nc2cc(C(C)CC(=O)O)ccc2N(CC(C)(C)O)C2CCOCC2)cn1` (single isomer, unassigned) [Example 192, 3-(4-((2-hydroxy-2-methylpropyl)(tetrahydro-2H-pyran-4-yl)amino)-3-((2-methoxypyrimidin-5-yl)amino)phenyl)butanoic acid], the IC50 is more than 0.05 µM.

Turning to `CCCCc1ccc(NC(=O)Nc2cc(C(CC)CC(=O)O)cc(F)c2N(CC(C)C)CC(C)C)cc1` (racemic) [Example 973, (+/−)-3-(3-(3-(4-butylphenyl)ureido)-4-(diisobutylamino)-5-fluorophenyl)pentanoic acid], the IC50 is less than 0.05 µM.

Regarding `COCC(CC(=O)O)c1ccc(N(CC(C)C)C2CCCCC2)c(NC(=O)Nc2cncnc2)c1` (single isomer, unassigned) [991-2], the IC50 was less than 0.005 µM.

As to `CC[C@H](CC(=O)O)c1ccc(N2CCC[C@@H]2C(C)(C)O)c(Nc2ccc(Cl)cc2)c1` (single isomer, unassigned) [Example 780], the IC50 was less than 0.005 µM.

For `CCC(CC(=O)O)c1ccc(N2CCC[C@H]2C(C)(C)O)c(Nc2cnc(OCC3CC3)nc2)c1` (single isomer, unassigned) [Example 822], the IC50 is more than 0.05 µM.

Take `CC[C@H](CC(=O)O)c1ccc(N(CC)C2CCOCC2)c(Nc2ccc(OC)nc2)c1` (single isomer, unassigned) [Example 518]: the half-inhibitory concentration (IC50) was less than 0.005 µM.
